In patent US12371428B2 (Exelixis, Inc., priority 2019, dated 2025):
Where two headings read alike, the source gives them in different places.

Experiments:
Assay type in all cases: cell-based
[1] = biological target: KDR (phospho-KDR, VEGF165-stimulated HUVEC cells) (Homo sapiens (Human), UniProt P35968); assay: KDR autophosphorylation ELISA in HUVEC cells (Example G); settings: cellular activity
In short: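 HUVEC cells, serum-starved 24 h, were treated 1 h with an 8-point compound dilution (0.3% DMSO) and then stimulated with 100 ng/mL VEGF165 for 5 min. Phospho-KDR in lysates was quantified by sandwich ELISA against a phospho-KDR standard. IC50 from a 4-parameter logistic fit, normalised between stimulated DMSO and unstimulated controls.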

[2] = biological target: Mer (phospho-Mer, MERTK-transfected 293A cells) (Homo sapiens (Human), UniProt Q12866); assay: Mer autophosphorylation ELISA in transient transfected 293A cells (Example H); settings: cellular activity
In short: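 Human MERTK transiently transfected into 293A cells; compounds as 8-point dose curve in serum-free medium (0.3% DMSO final), 1 h. Lysates assayed by phospho-Mer sandwich ELISA against phospho-Mer standard; DMSO = 100%, reference inhibitor = 0% activity; IC50 from 4-parameter logistic fit.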

[3] = biological target: AXL (phospho-AXL, Gas6-stimulated A-172 glioblastoma cells) (Homo sapiens (Human), UniProt P30530); assay: AXL autophosphorylation ELISA in A-172 cells (Example E); settings: cellular activity, read-out: Axl IC50
In short: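 Phospho-AXL in lysates was quantified by ELISA, normalised to DMSO (100%) and reference inhibitor (0%) controls. IC50 by 4-parameter logistic fit.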

[4] = biological target: Met (phospho-Met, HGF-stimulated PC-3 prostate cancer cells) (Homo sapiens (Human), UniProt P08581); assay: Met autophosphorylation ELISA in PC-3 cells (Example F); settings: cellular activity, read-out: c-Met IC50
In short: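 Serum-starved (3 h) PC-3 cells were treated 1 h with compounds (8-point curve, 0.3% DMSO), then stimulated with 100 ng/mL human HGF for 10 min. Lysate phospho-Met (panTyr) was measured by sandwich ELISA, normalised to DMSO and reference-inhibitor controls. IC50 came from 4-parameter logistic fit.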

[5] = KDR autophosphorylation ELISA in HUVEC cells
[6] = Mer autophosphorylation ELISA in transient transfected 293A cells
[7] = AXL autophosphorylation ELISA in A-172 cells
[8] = Met autophosphorylation ELISA in PC-3 cells

Chain of KDR (phospho-KDR, VEGF165-stimulated HUVEC cells) (P35968 20-1356): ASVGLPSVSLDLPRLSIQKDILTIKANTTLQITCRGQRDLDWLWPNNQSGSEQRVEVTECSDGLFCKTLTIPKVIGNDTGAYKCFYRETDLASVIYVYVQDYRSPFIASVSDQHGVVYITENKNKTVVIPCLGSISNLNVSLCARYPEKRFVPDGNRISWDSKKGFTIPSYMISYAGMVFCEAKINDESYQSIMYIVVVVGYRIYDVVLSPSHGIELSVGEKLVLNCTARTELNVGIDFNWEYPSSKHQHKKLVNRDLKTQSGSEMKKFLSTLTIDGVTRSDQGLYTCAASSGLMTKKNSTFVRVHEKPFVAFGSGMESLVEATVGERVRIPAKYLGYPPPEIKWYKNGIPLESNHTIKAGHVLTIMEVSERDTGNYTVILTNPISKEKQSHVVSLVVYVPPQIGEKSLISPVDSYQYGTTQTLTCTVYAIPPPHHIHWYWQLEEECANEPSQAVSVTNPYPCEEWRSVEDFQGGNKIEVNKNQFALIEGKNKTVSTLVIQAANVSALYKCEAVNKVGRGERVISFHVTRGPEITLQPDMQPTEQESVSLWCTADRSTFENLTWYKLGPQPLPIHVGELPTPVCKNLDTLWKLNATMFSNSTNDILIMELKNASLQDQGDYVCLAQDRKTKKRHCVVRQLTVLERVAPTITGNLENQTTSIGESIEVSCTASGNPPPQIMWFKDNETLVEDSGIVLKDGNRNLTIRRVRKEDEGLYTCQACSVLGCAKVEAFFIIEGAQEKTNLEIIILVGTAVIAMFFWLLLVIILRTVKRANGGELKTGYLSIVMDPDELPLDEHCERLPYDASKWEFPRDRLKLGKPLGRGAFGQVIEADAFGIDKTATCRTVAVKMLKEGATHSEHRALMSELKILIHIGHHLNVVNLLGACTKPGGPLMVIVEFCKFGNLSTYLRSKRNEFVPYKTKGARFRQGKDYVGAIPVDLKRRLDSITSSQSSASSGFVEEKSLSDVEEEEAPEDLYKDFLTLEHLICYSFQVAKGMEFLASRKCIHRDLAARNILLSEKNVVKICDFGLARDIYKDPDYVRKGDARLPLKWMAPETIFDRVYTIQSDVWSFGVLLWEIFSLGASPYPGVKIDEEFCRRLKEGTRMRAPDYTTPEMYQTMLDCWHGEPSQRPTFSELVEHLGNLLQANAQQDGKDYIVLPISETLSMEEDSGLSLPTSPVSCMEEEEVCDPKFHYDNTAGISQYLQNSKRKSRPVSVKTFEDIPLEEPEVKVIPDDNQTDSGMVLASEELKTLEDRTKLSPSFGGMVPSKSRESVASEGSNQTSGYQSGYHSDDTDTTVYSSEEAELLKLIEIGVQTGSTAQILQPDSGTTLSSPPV
Chain of Met (phospho-Met, HGF-stimulated PC-3 prostate cancer cells) (P08581 25-1390): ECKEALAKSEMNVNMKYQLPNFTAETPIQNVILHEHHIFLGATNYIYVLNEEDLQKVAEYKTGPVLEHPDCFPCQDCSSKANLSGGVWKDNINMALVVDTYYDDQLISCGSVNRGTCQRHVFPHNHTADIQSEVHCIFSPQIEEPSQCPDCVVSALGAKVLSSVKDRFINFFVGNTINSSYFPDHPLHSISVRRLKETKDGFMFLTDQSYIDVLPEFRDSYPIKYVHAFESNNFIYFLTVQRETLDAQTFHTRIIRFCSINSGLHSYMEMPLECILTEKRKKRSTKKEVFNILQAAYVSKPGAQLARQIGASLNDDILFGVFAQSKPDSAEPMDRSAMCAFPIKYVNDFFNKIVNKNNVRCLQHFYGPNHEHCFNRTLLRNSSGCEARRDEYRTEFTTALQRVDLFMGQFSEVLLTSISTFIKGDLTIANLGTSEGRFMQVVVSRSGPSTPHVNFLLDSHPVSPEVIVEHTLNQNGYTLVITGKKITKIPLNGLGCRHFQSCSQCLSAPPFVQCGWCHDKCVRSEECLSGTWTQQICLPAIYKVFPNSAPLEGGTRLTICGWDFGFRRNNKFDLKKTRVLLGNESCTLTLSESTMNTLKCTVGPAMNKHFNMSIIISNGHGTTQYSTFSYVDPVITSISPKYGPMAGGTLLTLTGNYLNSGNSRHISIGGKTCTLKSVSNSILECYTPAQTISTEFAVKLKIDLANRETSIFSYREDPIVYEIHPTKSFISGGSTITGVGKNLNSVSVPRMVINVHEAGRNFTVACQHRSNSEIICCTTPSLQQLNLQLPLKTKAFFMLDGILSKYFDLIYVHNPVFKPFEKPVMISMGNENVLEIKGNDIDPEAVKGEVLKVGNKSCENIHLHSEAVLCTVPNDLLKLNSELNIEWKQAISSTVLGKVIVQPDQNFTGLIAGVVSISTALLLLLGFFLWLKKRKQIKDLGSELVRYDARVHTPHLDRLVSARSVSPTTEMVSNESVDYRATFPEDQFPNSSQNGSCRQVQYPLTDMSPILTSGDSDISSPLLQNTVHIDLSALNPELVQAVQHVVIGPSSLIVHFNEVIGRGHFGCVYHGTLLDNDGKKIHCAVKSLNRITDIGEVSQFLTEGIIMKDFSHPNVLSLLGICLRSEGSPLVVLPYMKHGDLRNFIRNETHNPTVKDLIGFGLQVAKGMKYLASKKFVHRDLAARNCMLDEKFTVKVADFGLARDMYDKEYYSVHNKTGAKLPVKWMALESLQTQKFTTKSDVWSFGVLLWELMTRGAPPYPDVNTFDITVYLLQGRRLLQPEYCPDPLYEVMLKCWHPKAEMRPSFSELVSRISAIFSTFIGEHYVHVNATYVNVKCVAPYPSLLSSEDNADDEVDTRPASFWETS
Chain of AXL (phospho-AXL, Gas6-stimulated A-172 glioblastoma cells) (P30530 26-894): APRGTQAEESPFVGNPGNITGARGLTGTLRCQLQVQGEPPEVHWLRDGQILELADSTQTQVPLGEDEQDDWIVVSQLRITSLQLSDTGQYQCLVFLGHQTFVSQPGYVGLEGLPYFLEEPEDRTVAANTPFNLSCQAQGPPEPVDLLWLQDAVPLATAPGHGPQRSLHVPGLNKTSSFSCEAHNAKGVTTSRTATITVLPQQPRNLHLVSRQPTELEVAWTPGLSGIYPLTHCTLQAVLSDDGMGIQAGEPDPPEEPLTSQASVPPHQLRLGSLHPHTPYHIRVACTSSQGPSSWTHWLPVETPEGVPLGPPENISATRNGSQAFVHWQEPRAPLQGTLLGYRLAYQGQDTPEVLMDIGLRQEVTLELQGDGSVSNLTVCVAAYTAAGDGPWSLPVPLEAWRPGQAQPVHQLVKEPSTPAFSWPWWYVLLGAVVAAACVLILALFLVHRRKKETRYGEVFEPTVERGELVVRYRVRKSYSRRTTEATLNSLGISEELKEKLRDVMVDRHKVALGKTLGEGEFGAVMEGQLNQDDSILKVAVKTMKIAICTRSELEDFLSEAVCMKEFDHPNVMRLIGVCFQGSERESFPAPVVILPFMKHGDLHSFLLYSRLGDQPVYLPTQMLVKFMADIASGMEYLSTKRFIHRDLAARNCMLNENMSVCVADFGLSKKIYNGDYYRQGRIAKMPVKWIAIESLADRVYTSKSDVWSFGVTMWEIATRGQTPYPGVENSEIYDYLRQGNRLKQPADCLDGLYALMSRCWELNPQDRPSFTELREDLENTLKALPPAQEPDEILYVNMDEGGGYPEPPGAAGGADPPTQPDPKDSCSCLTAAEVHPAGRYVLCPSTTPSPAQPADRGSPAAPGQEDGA
Chain of Mer (phospho-Mer, MERTK-transfected 293A cells) (Q12866 21-999): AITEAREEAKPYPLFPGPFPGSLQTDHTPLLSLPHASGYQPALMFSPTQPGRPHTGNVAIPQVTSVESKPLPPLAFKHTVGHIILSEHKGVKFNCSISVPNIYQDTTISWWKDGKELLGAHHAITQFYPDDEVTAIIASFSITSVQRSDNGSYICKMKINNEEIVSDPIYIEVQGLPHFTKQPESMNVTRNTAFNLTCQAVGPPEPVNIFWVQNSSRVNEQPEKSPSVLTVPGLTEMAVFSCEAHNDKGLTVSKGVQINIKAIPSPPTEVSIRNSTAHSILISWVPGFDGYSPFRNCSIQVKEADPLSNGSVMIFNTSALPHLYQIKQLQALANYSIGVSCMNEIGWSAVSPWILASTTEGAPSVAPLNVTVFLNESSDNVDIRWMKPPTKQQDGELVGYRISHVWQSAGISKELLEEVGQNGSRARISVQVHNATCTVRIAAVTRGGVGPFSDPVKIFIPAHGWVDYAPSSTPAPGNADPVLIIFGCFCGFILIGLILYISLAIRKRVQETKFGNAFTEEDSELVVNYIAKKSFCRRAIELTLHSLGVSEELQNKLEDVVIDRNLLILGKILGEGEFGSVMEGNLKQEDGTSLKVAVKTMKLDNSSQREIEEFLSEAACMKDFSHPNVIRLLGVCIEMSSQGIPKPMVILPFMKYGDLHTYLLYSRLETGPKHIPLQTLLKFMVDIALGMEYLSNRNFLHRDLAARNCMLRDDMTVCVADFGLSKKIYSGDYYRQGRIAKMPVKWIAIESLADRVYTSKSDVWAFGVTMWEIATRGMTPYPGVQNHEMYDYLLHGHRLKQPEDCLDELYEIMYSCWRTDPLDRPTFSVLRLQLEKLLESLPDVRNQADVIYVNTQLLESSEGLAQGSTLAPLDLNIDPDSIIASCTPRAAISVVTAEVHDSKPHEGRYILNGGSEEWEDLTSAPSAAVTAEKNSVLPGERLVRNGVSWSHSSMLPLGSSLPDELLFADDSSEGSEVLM

Row | IC50 ([1]; HUVEC cells) | IC50 ([2]; transfected 293A cells) | IC50 ([3]; A-172 cells) | IC50 ([4]; PC-3 cells) | IC50 [1, 5] | IC50 [2, 6] | IC50 [3, 7] | IC50 [4, 8] | Compound
1 | > 300 nM | < 100 nM | < 100 nM | < 100 nM | – | – | – | – | COc1cnc2c(Oc3ccc(NC(=O)c4c(C)n(CC(F)F)cc(-c5ccc(F)c(C)c5)c4=O)cc3F)ccnc2c1 [Compound 814, 1-(2,2-difluoroethyl)-N-[3-fluoro-4-[(7-methoxy-1,5-naphthyridin-4-yl)oxy]phenyl]-5-(4-fluoro-3-methylphenyl)-2-methyl-4-oxopyridine-3-carboxamide]
2 | – | – | – | – | > 300 nM | < 100 nM | < 100 nM | < 100 nM | C=Cc1c(C)c(C(=O)Nc2ccc(Oc3ccnc4cc(OC)c(OC)nc34)cc2)c(=O)n(-c2ccc(F)cc2)c1C [Compound 328, N-[4-[(6,7-Dimethoxy-1,5-naphthyridin-4-yl)oxy]phenyl]-5-ethenyl-1-(4-fluorophenyl)-4,6-dimethyl-2-oxopyridine-3-carboxamide]
3 | – | – | – | – | < 100 nM | < 100 nM | < 100 nM | < 100 nM | CCOc1nc2c(Oc3ccc(NC(=O)c4cnc(C)c(-c5ccc(F)cc5C)c4O)cc3)ccnc2cc1OC [Compound 673, N-[4-[(6-ethoxy-7-methoxy-1,5-naphthyridin-4-yl)oxy]phenyl]-5-(4-fluoro-2-methylphenyl)-4-hydroxy-6-methylpyridine-3-carboxamide]
4 | – | – | – | – | 100 to 300 nM | < 100 nM | < 100 nM | < 100 nM | COc1cc2nccc(Oc3cc(F)c(NC(=O)c4c(C)n(C)c(C)c(-c5ccc(F)cc5)c4=O)cc3F)c2nc1OC [Compound 769, N-[4-[(6,7-dimethoxy-1,5-naphthyridin-4-yl)oxy]-2,5-difluorophenyl]-5-(4-fluorophenyl)-1,2,6-trimethyl-4-oxopyridine-3-carboxamide]
5 | – | – | – | – | > 300 nM | 100 to 300 nM | > 300 nM | > 300 nM | COc1cnc2c(Oc3ccc(NC(=O)c4c(C)nc(C)c(-c5ccc(C(C)C)cc5)c4O)cc3F)ccnc2c1 [Compound 690, N-[3-fluoro-4-[(7-methoxy-1,5-naphthyridin-4-yl)oxy]phenyl]-4-hydroxy-2,6-dimethyl-5-(4-propan-2-ylphenyl)pyridine-3-carboxamide]
6 | – | – | – | – | < 100 nM | < 100 nM | < 100 nM | < 100 nM | CCOc1c(C(=O)Nc2ccc(Oc3ccnc4cc(OC)c(OC)cc34)c(F)c2)nnc(C)c1-c1ccc(F)cc1 [Compound 572, N-[4-(6,7-Dimethoxyquinolin-4-yl)oxy-3-fluorophenyl]-4-ethoxy-5-(4-fluorophenyl)-6-methylpyridazine-3-carboxamide]
7 | – | – | – | – | < 100 nM | < 100 nM | > 300 nM | > 300 nM | COc1cnc2c(Oc3ccc(NC(=O)c4cnc(C)c(-c5ccc(OC)c(F)c5)c4O)cc3F)ccnc2c1 [Compound 698, N-[3-fluoro-4-[(7-methoxy-1,5-naphthyridin-4-yl)oxy]phenyl]-5-(3-fluoro-4-methoxyphenyl)-4-hydroxy-6-methylpyridine-3-carboxamide]
8 | – | – | – | – | > 300 nM | < 100 nM | < 100 nM | < 100 nM | COc1cc2nccc(Oc3ccc(NC(=O)c4nc(C)cn(-c5ccc(F)cc5)c4=O)cc3F)c2nc1OC [Compound 684, N-[4-[(6,7-dimethoxy-1,5-naphthyridin-4-yl)oxy]-3-fluorophenyl]-4-(4-fluorophenyl)-6-methyl-3-oxopyrazine-2-carboxamide]
9 | – | – | – | – | < 100 nM | < 100 nM | 100 to 300 nM | < 100 nM | COc1cc2nccc(Oc3ccc(NC(=O)c4c(C)ncc(Br)c4O)cc3F)c2nc1OC [Compound 490, 5-bromo-N-[4-[(6,7-dimethoxy-1,5-naphthyridin-4-yl)oxy]-3-fluorophenyl]-4-hydroxy-2-methylpyridine-3-carboxamide]
10 | – | – | – | – | < 100 nM | < 100 nM | < 100 nM | < 100 nM | COc1cc2nccc(Oc3ccc(NC(=O)c4c(C)[nH]nc(-c5ccc(F)cc5C)c4=O)cc3F)c2nc1OC [Compound 738, N-[4-[(6,7-dimethoxy-1,5-naphthyridin-4-yl)oxy]-3-fluorophenyl]-3-(4-fluoro-2-methylphenyl)-6-methyl-4-oxo-1H-pyridazine-5-carboxamide]
11 | – | – | – | – | < 100 nM | < 100 nM | < 100 nM | < 100 nM | COc1cnc2c(Oc3ccc(NC(=O)c4c(C)c(Br)c(C)n(-c5ccc(F)cc5)c4=O)cc3F)ccnc2c1 [Compound 314, 5-Bromo-N-[3-fluoro-4-[(7-methoxy-1,5-naphthyridin-4-yl)oxy]phenyl]-1-(4-fluorophenyl)-4,6-dimethyl-2-oxopyridine-3-carboxamide]
12 | – | – | – | – | < 100 nM | < 100 nM | < 100 nM | < 100 nM | COc1cc2nccc(Oc3ccc(NC(=O)c4c(C)ncc(-c5ccc(F)c(F)c5)c4O)cc3F)c2nc1OC [Compound 796, 5-(3,4-difluorophenyl)-N-[4-[(6,7-dimethoxy-1,5-naphthyridin-4-yl)oxy]-3-fluorophenyl]-4-hydroxy-2-methylpyridine-3-carboxamide]
13 | – | – | – | – | < 100 nM | < 100 nM | < 100 nM | < 100 nM | COc1cc2nccc(Oc3ccc(NC(=O)c4c(C)n(C)nc(-c5ccc(F)cc5)c4=O)cc3F)c2nc1OC [Compound 655, N-[4-[(6,7-dimethoxy-1,5-naphthyridin-4-yl)oxy]-3-fluorophenyl]-6-(4-fluorophenyl)-2,3-dimethyl-5-oxopyridazine-4-carboxamide]
14 | – | – | – | – | < 100 nM | < 100 nM | < 100 nM | < 100 nM | COc1cc2nccc(Oc3ccc(NC(=O)c4cccn(-c5ccc(F)cc5)c4=O)cc3)c2nc1OC [Compound 361, N-[4-[(6,7-dimethoxy-1,5-naphthyridin-4-yl)oxy]phenyl]-1-(4-fluorophenyl)-2-oxopyridine-3-carboxamide]
15 | – | – | – | – | > 300 nM | < 100 nM | < 100 nM | < 100 nM | Cn1cc(C(=O)Nc2ccc(Oc3ccnc4cccnc34)c(F)c2)c(=O)c(-c2ccc(F)cc2)c1CO [Compound 748, N-[3-fluoro-4-(1,5-naphthyridin-4-yloxy)phenyl]-5-(4-fluorophenyl)-6-(hydroxymethyl)-1-methyl-4-oxopyridine-3-carboxamide]
16 | – | – | – | – | < 100 nM | < 100 nM | < 100 nM | < 100 nM | COCCOc1cc2nccc(Oc3ccc(NC(=O)c4ccc(C)n(-c5ccc(F)cc5)c4=O)cc3F)c2nc1OC [Compound 484, N-[3-fluoro-4-[[6-methoxy-7-(2-methoxyethoxy)-1,5-naphthyridin-4-yl]oxy]phenyl]-1-(4-fluorophenyl)-6-methyl-2-oxopyridine-3-carboxamide]
17 | – | – | – | – | < 100 nM | < 100 nM | < 100 nM | < 100 nM | C=C(C)c1cnc2c(Oc3ccc(NC(=O)c4c(C)nc(C)n(-c5ccc(F)cc5)c4=O)cc3F)ccnc2c1 [Compound 466, 1-(4-fluorophenyl)-N-[3-fluoro-4-[(7-prop-1-en-2-yl-1,5-naphthyridin-4-yl)oxy]phenyl]-2,4-dimethyl-6-oxopyrimidine-5-carboxamide]
18 | – | – | – | – | > 300 nM | < 100 nM | < 100 nM | < 100 nM | COCc1nc(C)c(Br)c(O)c1C(=O)Nc1ccc(Oc2ccnc3cc(OC)c(OC)nc23)c(F)c1 [Compound 535, 5-bromo-N-[4-[(6,7-dimethoxy-1,5-naphthyridin-4-yl)oxy]-3-fluorophenyl]-4-hydroxy-2-(methoxymethyl)-6-methylpyridine-3-carboxamide]
19 | – | – | – | – | < 100 nM | < 100 nM | < 100 nM | < 100 nM | COCCOc1cc2nccc(Oc3ccc(NC(=O)c4c(C)cc(C)n(-c5ccc(F)cc5)c4=O)cc3F)c2nc1OC [Compound 485, N-[3-fluoro-4-[[6-methoxy-7-(2-methoxyethoxy)-1,5-naphthyridin-4-yl]oxy]phenyl]-1-(4-fluorophenyl)-4,6-dimethyl-2-oxopyridine-3-carboxamide]
20 | – | – | – | – | < 100 nM | < 100 nM | < 100 nM | < 100 nM | COCc1nc(C)c(-c2ccc(F)cc2)c(O)c1C(=O)Nc1ccc(Oc2ccnc3cc(C)c(F)nc23)c(F)c1 [Compound 446, N-[3-fluoro-4-[(6-fluoro-7-methyl-1,5-naphthyridin-4-yl)oxy]phenyl]-5-(4-fluorophenyl)-4-hydroxy-2-(methoxymethyl)-6-methylpyridine-3-carboxamide]
